Here are results for 19 molecules from patent US10030027B2, “Soluble guanylate cyclase stimulators” (MERCK SHARP & DOHME CORP., priority 2015, dated 2018).

The target in assay [1] is human recombinant sGC enzyme (Homo sapiens (Human), UniProt Q02108+Q02153). Description: Size Exclusion Chromatography (SEC) competition binding assay using [3H] Ex-77B as the radioligand. The conditions noted are these: [3H] Ex-77B radioligand, 24 hours at 37° C. In short, it runs like this: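 Recombinant human sGC binding measured by competition against tritiated Ex-77B radioligand, with non-specific binding defined by 1 μM unlabeled Ex-77B.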

The next assay concerns the target sGC α1/β1 heterodimer (Homo sapiens (Human), UniProt Q02108+Q02153). Description: Cell-based sGC functional assay (cyclic GMP assay for sGC activator: CASA assay). Particulars: CHO-K1/sGC cells; for Emax: CHO-K1, activity expressed as percentage of compound A (standard), read-out: % Activation; for EC50: inflection point, 4P fit, read-out: IP. A digest of the protocol: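 CHO-K1 cells stably expressing human sGC α1/β1 were pre-incubated 30 min at 25° C with or without 1 μM DETA-NO, then exposed to compound for 1 hr at 37° C with 0.5 mM IBMX and 2.5% DMSO final. Intracellular cGMP was measured by HTRF, expressed as % of reference sGC-HDA maximum; inflection point and maximum fold induction came from 4-parameter fits.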

Usually Ki stands for a measure of affinity in units of concentration, obtained from inhibition or displacement. For `Cc1nc([C@]2(C)C(=O)Nc3nc(-c4nn(CCC(F)(F)C(F)(F)F)c5ncccc45)nc(N)c32)sc1CC(=O)O` [Example 83B, (S)-(2-{4-amino-5-methyl-6-oxo-2-[1-(3,3,4,4,4-pentafluorobutyl)-1H-pyrazolo[3,4-b]pyridin-3-yl]-6,7-dihydro-5H-pyrrolo[2,3-d]pyrimidin-5-yl}-4-methyl-1,3-thiazol-5-yl)acetic acid], in assay [1], the inhibition constant Ki was 1.74 nM. Besides, on sGC α1/β1 heterodimer, the Emax came out at 80% and the EC50 was 1420 nM.

As for `CC(C)(C)CCn1nc(-c2nc(N)c3c(n2)NC(=O)C3(C)c2nc(CC(C)(C)C(=O)O)co2)c2ccc(Cl)cc21` (centres unmarked) [Example 208A, 3-(2-{4-amino-2-[6-chloro-1-(3,3-dimethylbutyl)-1H-indazol-3-yl]-5-methyl-6-oxo-6,7-dihydro-5H-pyrrolo[2,3-d]pyrimidin-5-yl}-1,3-oxazol-4-yl)-2,2-dimethyl-propanoic acid], the Ki in assay [1] turned out to be 0.253 nM. Besides, at sGC α1/β1 heterodimer, the Emax was 101% and the EC50 was 453 nM.

Regarding `CC1(c2ccc(CCS(=O)(=O)O)cc2)C(=O)Nc2nc(-c3nn(Cc4ccccc4F)c4cc(Cl)ccc34)nc(N)c21` (single isomer, unassigned) [Example 258B, 2-(4-{4-Amino-2-[6-chloro-1-(2-fluorobenzyl)-1H-indazol-3-yl]-5-methyl-6-oxo-6,7-dihydro-5H-pyrrolo[2,3-d]pyrimidin-5-yl}phenyl)ethanesulfonic acid], the inhibition constant Ki in assay [1] is 0.08 nM. The EC50 at sGC α1/β1 heterodimer is 1730 nM.

As for `CC1(c2nc3cc(C(=O)O)ccc3o2)C(=O)Nc2nc(-c3nn(Cc4ccccc4F)c4cc(Cl)ccc34)nc(N)c21` (centres unmarked) [Example 168B, 2-{4-amino-2-[6-chloro-1-(2-fluorobenzyl)-1H-indazol-3-yl]-5-methyl-6-oxo-6,7-dihydro-5H-pyrrolo[2,3-d]pyrimidin-5-yl}-1,3-benzoxazole-5-carboxylic acid], the inhibition constant Ki in assay [1] came out at 0.164 nM. Also, on sGC α1/β1 heterodimer, the Emax came out at 141% and the EC50 stood at 207 nM.

For `CC(C)(Cc1coc(C2(C)C(=O)Nc3nc(-c4nn(Cc5cccc(F)c5)c5cc(Cl)ccc45)nc(N)c32)n1)C(=O)O` (centres unmarked) [Example 175A, 3-(2-{4-amino-2-[6-chloro-1-(3-fluorobenzyl)-1H-indazol-3-yl]-5-methyl-6-oxo-6,7-dihydro-5H-pyrrolo[2,3-d]pyrimidin-5-yl}-1,3-oxazol-4-yl)-2,2-dimethyl-propanoic acid], the inhibition constant Ki in assay [1] was determined as 0.151 nM. In addition, at sGC α1/β1 heterodimer, the Emax was 139% and the EC50 came out at 96 nM.

Turning to `CC(C)(Cc1csc([C@]2(C)C(=O)Nc3nc(-c4nn(Cc5cccc(F)c5)c5ncccc45)nc(N)c32)n1)C(=O)O` [Example 149A, (S)-3-(2-{4-amino-2-[1-(3-fluoro-benzyl)-1H-pyrazolo [3,4-b]pyridin-3-yl]-5-methyl-6-oxo-6,7-dihydro-5H-pyrrolo[2,3-d]pyrimidin-5-yl}-1,3-thiazol-4-yl)-2,2-dimethyl-propanoic acid], in assay [1], the Ki came to 0.167 nM. At sGC α1/β1 heterodimer, the Emax turned out to be 103% and the EC50 stood at 111 nM.

As to `Cc1cccc(Cn2nc(-c3nc(N)c4c(n3)NC(=O)C4(C)c3nc(CC(C)(C)C(=O)O)co3)c3ccc(Cl)cc32)c1F` (centres unmarked) [Example 187A, 3-(2-{4-amino-2-[6-chloro-1-(2-fluoro-3-methyl-benzyl)-1H-indazol-3-yl]-5-methyl-6-oxo-6,7-dihydro-5H-pyrrolo[2,3-d]pyrimidin-5-yl}-1,3-oxazol-4-yl)-2,2-dimethyl-propanoic acid], in assay [1], the Ki amounted to 0.029 nM. Besides, on sGC α1/β1 heterodimer, the Emax amounted to 97.1% and the EC50 turned out to be 244 nM.

For `CC(C)(Cc1coc(C2(C)C(=O)Nc3nc(-c4nn(Cc5cccc(F)c5)c5ccccc45)nc(N)c32)n1)C(=O)O` (centres unmarked) [Example 223A, 3-(2-{4-amino-2-[1-(3-fluoro-benzyl)-1H-indazol-3-yl]-5-methyl-6-oxo-6,7-dihydro-5H-pyrrolo[2,3-d]pyrimidin-5-yl}-1,3-oxazol-4-yl)-2,2-dimethyl-propanoic acid], the Ki in assay [1] was 0.05 nM. Besides, on sGC α1/β1 heterodimer, the Emax was found to be 119% and the EC50 was 210 nM.

With `CC1(c2cccc(-c3nn[nH]n3)c2)C(=O)Nc2nc(-c3nn(Cc4ccccc4F)c4cc(F)ccc34)nc(N)c21` (centres unmarked) [Example 249B, 4-Amino-2-[6-fluoro-1-(2-fluorobenzyl)-1H-indazol-3-yl]-5-methyl-5-[3-(1H-tetrazol-5-yl)phenyl]-5,7-dihydro-6H-pyrrolo[2,3-d]pyrimidin-6-one], the Ki in assay [1] was found to be 0.068 nM. Besides, at sGC α1/β1 heterodimer, the Emax came to 98.5% and the EC50 stood at 2620 nM.

`C[C@@]1(c2ccc(CCC(=O)NCC(=O)O)cc2)C(=O)Nc2nc(-c3nn(Cc4ccccc4F)c4ncccc34)nc(N)c21` [Example 100B, (S)-(3-(4-{4-Amino-2-[1-(2-fluorobenzyl)-1H-pyrazolo[3,4-b]pyridin-3-yl]-5-methyl-6-oxo-6,7-dihydro-5H-pyrrolo[2,3-d]pyrimidin-5-yl}phenyl)propanoyl)glycine]: the Ki in assay [1] amounted to 0.039 nM. In addition, at sGC α1/β1 heterodimer, the Emax was found to be 109% and the EC50 is 1800 nM.

In the case of `CC(C)(Cn1cc(C2(C)C(=O)Nc3nc(-c4nn(CCC(F)(F)C(F)(F)F)c5cc(Cl)ccc45)nc(N)c32)nn1)C(=O)O` (centres unmarked) [Example 31B, 3-(4-{4-amino-2-[6-chloro-1-(3,3,4,4,4-pentafluorobutyl)-1H-indazol-3-yl]-5-methyl-6-oxo-6,7-dihydro-5H-pyrrolo[2,3-d]pyrimidin-5-yl}-1H-1,2,3-triazol-1-yl)-2,2-dimethylpropanoic acid], the Ki in assay [1] is 1.41 nM. On sGC α1/β1 heterodimer, the Emax amounted to 130% and the EC50 came to 8330 nM.

Turning to `Nc1nc(-c2nn(CCC(F)(F)C(F)(F)F)c3cc(Cl)ccc23)nc2c1C(c1ccc(CCC(=O)O)cc1)(C1CC1)C(=O)N2` (centres unmarked) [Example 158A, 3-(4-{4-amino-2-[6-chloro-1-(3,3,4,4,4-penta-fluorobutyl)-1H-indazol-3-yl]-5-cyclopropyl-6-oxo-6,7-dihydro-5H-pyrrolo[2,3-d]pyrimidin-5-yl}phenyl)propanoic acid], in assay [1], the Ki was 0.864 nM. Also, on sGC α1/β1 heterodimer, the Emax is 88.8% and the EC50 was 353 nM.

Regarding `CC(C)(Cc1csc([C@]2(C)C(=O)Nc3nc(-c4nn(Cc5ccc(F)cc5F)c5cc(Cl)ccc45)nc(N)c32)n1)C(=O)O` [Example 179A, (S)-3-(2-{4-amino-2-[6-chloro-1-(2,4-difluorobenzyl)-1H-indazol-3-yl]-5-methyl-6-oxo-6,7-dihydro-5H-pyrrolo[2,3-d]pyrimidin-5-yl}-1,3-thiazol-4-yl)-2,2-dimethyl-propanoic acid], the Ki in assay [1] amounted to 0.144 nM. On sGC α1/β1 heterodimer, the Emax amounted to 118% and the EC50 was 262 nM.

Regarding `Cc1oc(C2(C)C(=O)Nc3nc(-c4nn(Cc5cccc(F)c5)c5cc(F)ccc45)nc(N)c32)nc1CC(C)(C)C(=O)O` (centres unmarked) [Example 198B, 3-(2-{4-amino-2-[6-fluoro-1-(3-fluorobenzyl)-1H-indazol-3-yl]-5-methyl-6-oxo-6,7-dihydro-5H-pyrrolo[2,3-d]pyrimidin-5-yl}-5-methyl-1,3 - oxazol-4-yl)-2,2-dimethyl-propanoic acid], the Ki in assay [1] was determined as 0.107 nM. Besides, at sGC α1/β1 heterodimer, the Emax worked out at 134% and the EC50 came out at 1070 nM.

Turning to `CC1(c2nc(-c3ccc(C(=O)O)cc3)cs2)C(=O)Nc2nc(-c3nn(Cc4ccccc4F)c4ncccc34)nc(N)c21` (centres unmarked) [Example 147A, 4-(2-{4-amino-2-[1-(2-fluorobenzyl)-1H-pyrazolo[3,4-b]pyridin-3-yl]-5-methyl-6-oxo-6,7-dihydro-5H-pyrrolo [2,3-d]pyrimidin-5-yl}-1,3-thiazol-4-yl)benzoic acid], the inhibition constant (Ki) in assay [1] came out at 0.075 nM. For the same molecule, at sGC α1/β1 heterodimer, the Emax came out at 73.4% and the EC50 was 61 nM.

Turning to `CC(C)(Cc1csc([C@]2(C)C(=O)Nc3nc(-c4nn(CC5CCCCC5)c5ncccc45)nc(N)c32)n1)C(=O)O` (single isomer, unassigned) [Example 151A], the Ki in assay [1] was 0.124 nM. Also, at sGC α1/β1 heterodimer, the Emax was 131% and the EC50 amounted to 194 nM.

For `C[C@@]1(c2ccc(CCC(=O)O)cc2)C(=O)Nc2nc(-c3nn(CCCC(F)(F)F)c4ncc(F)cc34)nc(N)c21` [Example 18B, (S)-3-(4-{4-amino-2-[5-fluoro-1-(4,4,4-trifluorobutyl)-1H-pyrazolo[3,4-b]pyridin-3-yl]-5-methyl-6-oxo-6,7-dihydro-5H-pyrrolo[2,3-d]pyrimidin-5-yl}phenyl)propanoic acid], the inhibition constant (Ki) in assay [1] worked out at 0.92 nM. On sGC α1/β1 heterodimer, the Emax worked out at 95% and the EC50 was 2500 nM.

On to `Cc1ccc(F)c(Cn2nc(-c3nc(N)c4c(n3)NC(=O)[C@@]4(C)c3nc(CC(C)(C)C(=O)O)cs3)c3ccc(Cl)cc32)c1` (single isomer, unassigned) [Example 214A], for which the inhibition constant Ki in assay [1] came to 0.267 nM. Further, on sGC α1/β1 heterodimer, the Emax amounted to 116% and the EC50 stood at 320 nM.

`CC1(c2nc(CCC(F)(F)C(=O)O)co2)C(=O)Nc2nc(-c3nn(Cc4cccc(F)c4)c4cc(F)ccc34)nc(N)c21` (centres unmarked) [Example 135A, 4-(2-{4-amino-2-[6-fluoro-1-(3-fluorobenzyl)-1H-indazol-3-yl]-5-methyl-6-oxo-6,7-dihydro-5H-pyrrolo[2,3-d]pyrimidin-5-yl}-1,3-oxazol-4-yl)-2,2-difluorobutanoic acid]: in assay [1], the inhibitory constant (Ki) turned out to be 0.275 nM. Moreover, at sGC α1/β1 heterodimer, the Emax turned out to be 92.9% and the EC50 turned out to be 254 nM.
